Three compounds from ChEMBL document CHEMBL1149251, “Acetylcholinesterase inhibitory activity of scopolin and scopoletin discovered by virtual screening of natural products” (J Med Chem, 2004) can be followed below.

Experiment [1] has as its system Rattus norvegicus. Kind of experiment: Increase in extracellular acetylcholine at 2 uM in urethane anesthetized Sprague-Dawley rat nucleus accumbens. The experiment is classed as functional.
The test system of experiment [2] is Rattus norvegicus. Briefly: Increase in extracellular acetylcholine at 1 uM in urethane anesthetized Sprague-Dawley rat nucleus accumbens. The format is functional.
Experiment [3] concerns Rattus norvegicus. Briefly: Increase in extracellular acetylcholine in urethane anesthetized Sprague-Dawley rat nucleus accumbens at 2 umol relative to basal release. The format is functional.
Experiment [4] concerns the target T1, Acetylcholinesterase (Homo sapiens, UniProt P22303). Kind of experiment: Inhibition of AChE by microplate assay.
For experiment [5], the system named is Rattus norvegicus. Briefly: Increase in extracellular acetylcholine in urethane anesthetized Sprague-Dawley rat nucleus accumbens. The format is functional.
The target of experiment [6] is T1, Acetylcholinesterase. Kind of experiment: Inhibition of AChE at 1000 uM by microplate assay.

T1 sequence (P22303 whole entry): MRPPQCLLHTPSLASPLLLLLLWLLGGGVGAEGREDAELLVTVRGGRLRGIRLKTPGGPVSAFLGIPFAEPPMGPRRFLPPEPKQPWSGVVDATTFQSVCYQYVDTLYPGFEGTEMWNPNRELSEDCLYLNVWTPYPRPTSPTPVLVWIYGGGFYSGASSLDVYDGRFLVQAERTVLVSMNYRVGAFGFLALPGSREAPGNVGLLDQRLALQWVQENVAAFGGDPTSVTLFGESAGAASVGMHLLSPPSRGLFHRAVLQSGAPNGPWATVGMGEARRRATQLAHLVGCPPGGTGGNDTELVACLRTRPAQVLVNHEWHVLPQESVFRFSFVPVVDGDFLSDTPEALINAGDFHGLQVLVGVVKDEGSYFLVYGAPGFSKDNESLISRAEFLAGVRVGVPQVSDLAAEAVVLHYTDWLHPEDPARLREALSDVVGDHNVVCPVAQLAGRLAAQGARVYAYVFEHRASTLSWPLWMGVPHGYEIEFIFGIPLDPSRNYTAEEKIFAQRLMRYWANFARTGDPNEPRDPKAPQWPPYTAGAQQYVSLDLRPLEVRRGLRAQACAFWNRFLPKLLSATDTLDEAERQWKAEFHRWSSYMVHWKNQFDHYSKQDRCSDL

Consider `COc1ccc2c3c1O[C@H]1C[C@@H](O)C=C[C@@]31CCN(C)C2` [GALANTAMINE], for which the Activity in the experiment on Rattus norvegicus [1] is reported as 1.68; in the experiment on Rattus norvegicus [2], 1.78.
One may read the IC50 as the concentration that inhibits the measured activity by half. Read a high IC50 as weaker potency. Consider `COc1cc2ccc(=O)oc2cc1O` [SCOPOLETIN], for which the results for the Activity in the experiment on Rattus norvegicus [3] and in the experiment on Rattus norvegicus [5] were 170% and 1.74, respectively. Besides, the IC50 against Acetylcholinesterase [4] amounted to 169 µM.
One may read the inhibition as the relative decrease from the control value, in per cent. A lower inhibition goes with little suppression. For the compound `COc1cc2ccc(=O)oc2cc1O[C@@H]1O[C@H](CO)[C@@H](O)[C@H](O)[C@H]1O` [SCOPOLIN], the Activity was 300% in the experiment with Rattus norvegicus [3], “Dose-dependent effect” at Acetylcholinesterase [4] and 3.18 in the experiment on Rattus norvegicus [5]. The same compound displayed an inhibition against Acetylcholinesterase [6] of 30.1%.
